Laboratory results as given in US20220295782A1, “METHOD FOR PRODUCING FROZEN BODY OF THREE-DIMENSIONAL TISSUE AGGREGATE OF RETINAL PIGMENT EPITHELIAL CELLS” (NICHIREI BIOSCIENCE INC., priority 2019, published 2022).
Where two headings read alike, the source gives them in different places.

System: RPE cells
Method: RPE cells (manufactured by Lonza K.K., 00194987) were seeded on a 96-well plate (Falcon, 353072) at 3.3×10^4 cells/well, and cultured in a maintenance medium (350 mL of DMEM (Sigma, D6046), 150 mL of F12 HAM (Sigma, N6658), 10 mL of B27 (Invitrogen, 17504-044), 5 mL of 200 mM L-glutamine (Sigma, G7513), 10 ng/mL of bFGF (Wako, 060-04543), […] of SB431542 hydrate (Sigma, S4317)) until the cells reached confluent. The cultured cells were washed with PBS(−) at room temperature, and then exposed to a pretreatment solution for 10 minutes or 30 minutes.
As the pretreatment solutions, solutions having EG concentrations of 10 (v/v) %, 12.5 (v/v) %, 15 (v/v) %, 17.5 (v/v) % and 20 (v/v) % were used. As the solvent of the pretreatment solution, a Dulbecco's modified Eagle's medium (DMEM) supplemented with 2 mM L-glutamine or PBS(−) was used.

OCCO [EG, ethylene glycol]
initial toxicity (metabolic activity of cells, MTS assay) (0 hours of culture time, EG 10-20 (v/v) % in DMEM supplemented with 2 mM L-glutamine, exposure 10 minutes): increased in a concentration-dependent manner from the EG concentration of 12.5 (v/v) %
time to recovery of metabolic activity (30-minute exposure versus 10-minute exposure): longer time to recovery is required
cytotoxicity (MTS assay) (30 minutes of exposure time to the pretreatment solution): same tendency of cytotoxicity as in the results of FIG. 1
cytotoxicity (MTS assay) (PBS(-) used as the solvent): the same tendency as when the DMEM medium supplemented with glutamine was used
culture time in which recovery of metabolic activity is possible (up to EG concentration of 17.5 (v/v) %, DMEM with glutamine, exposure 10 minutes): about 24 hours
